For assay [1], the system named is phosphorylation of STAT3. Description: SUM-159-MSD-pSTAT3 cell-based assay. To be noted: SUM159; Sum-159 breast cancer cells, human IL-6 stimulated; read-out: IC50, inhibits the phosphorylation of STAT3. How it is done:
The SUM-159-MSD-pSTAT3 cell-based assay is used to examine the potency of compounds at blocking STAT3 phosphorylation in breast cancer cells. Sum-159 cells (Asterand) are grown and maintained in HAM's F-12 medium (Gibco 11765-054) with 5% FBS, insulin (5 microgram/mL) and hydrocortisone (1 μg/ml). Cells are collected, counted, plated at 4×10^4 cells/well in 96-well plates, and cultured for overnight at 37° C. with 5% CO2. Culture medium is then removed and replaced with F-12-medium containing either vehicle (DMSO) alone or 2× final concentrations of compounds across a range from 0-20 μM at 1:3 dilutions (10 concentration points). After incubation for five additional hours, medium is removed and cells are treated with 100 microliters of 2× human IL-6 (20 ng/mL diluted in F-12 complete medium) and incubated for an additional 20 minutes at 37° C. in 5% CO2. […] The 96-well plates are sealed and then mixed for 2 minutes on an orbital shaker at room temperature, and then immediately frozen at −80° C. overnight. pSTAT3 is detected with the use of the MA6000 MSD Whole Cell Lysate Kit for Phospho-STAT-3 (Tyr 705) (Meso Scale Diagnostics, #K150DID-2) as described above. Plates are read by using a MSD plate reader. Data are analyzed using Graph Pad program.

The target in assay [2] is JAK2 (Homo sapiens, UniProt O60674). Description: JAK2 EPO-TF1/pSTAT5 cell-based assay (Cellomics ArrayScan HCS). Details: endogenous in cells; host or cells: TF-1 (human erythroid leukemia) cells. The settings on record: TF-1 cells, EPO at 1.6 U/mL, relative IC50, n=65; read-out: IC50, inhibits JAK2 (pSTAT5). An excerpt: The JAK2 EPO-TF1/pSTAT5 cell-based assay mimics the constitutive activation of JAK2-STAT5 in erythroid progenitor cells, which drives the overproduction of red blood cells, a marker of polycythemia vera (PV). Therefore, the EPO-TF1/pSTAT5 cell-based assay enables the evaluation of the JAK2 cellular activity of JAK compounds in vitro.
Sequence of JAK2 (O60674 whole entry): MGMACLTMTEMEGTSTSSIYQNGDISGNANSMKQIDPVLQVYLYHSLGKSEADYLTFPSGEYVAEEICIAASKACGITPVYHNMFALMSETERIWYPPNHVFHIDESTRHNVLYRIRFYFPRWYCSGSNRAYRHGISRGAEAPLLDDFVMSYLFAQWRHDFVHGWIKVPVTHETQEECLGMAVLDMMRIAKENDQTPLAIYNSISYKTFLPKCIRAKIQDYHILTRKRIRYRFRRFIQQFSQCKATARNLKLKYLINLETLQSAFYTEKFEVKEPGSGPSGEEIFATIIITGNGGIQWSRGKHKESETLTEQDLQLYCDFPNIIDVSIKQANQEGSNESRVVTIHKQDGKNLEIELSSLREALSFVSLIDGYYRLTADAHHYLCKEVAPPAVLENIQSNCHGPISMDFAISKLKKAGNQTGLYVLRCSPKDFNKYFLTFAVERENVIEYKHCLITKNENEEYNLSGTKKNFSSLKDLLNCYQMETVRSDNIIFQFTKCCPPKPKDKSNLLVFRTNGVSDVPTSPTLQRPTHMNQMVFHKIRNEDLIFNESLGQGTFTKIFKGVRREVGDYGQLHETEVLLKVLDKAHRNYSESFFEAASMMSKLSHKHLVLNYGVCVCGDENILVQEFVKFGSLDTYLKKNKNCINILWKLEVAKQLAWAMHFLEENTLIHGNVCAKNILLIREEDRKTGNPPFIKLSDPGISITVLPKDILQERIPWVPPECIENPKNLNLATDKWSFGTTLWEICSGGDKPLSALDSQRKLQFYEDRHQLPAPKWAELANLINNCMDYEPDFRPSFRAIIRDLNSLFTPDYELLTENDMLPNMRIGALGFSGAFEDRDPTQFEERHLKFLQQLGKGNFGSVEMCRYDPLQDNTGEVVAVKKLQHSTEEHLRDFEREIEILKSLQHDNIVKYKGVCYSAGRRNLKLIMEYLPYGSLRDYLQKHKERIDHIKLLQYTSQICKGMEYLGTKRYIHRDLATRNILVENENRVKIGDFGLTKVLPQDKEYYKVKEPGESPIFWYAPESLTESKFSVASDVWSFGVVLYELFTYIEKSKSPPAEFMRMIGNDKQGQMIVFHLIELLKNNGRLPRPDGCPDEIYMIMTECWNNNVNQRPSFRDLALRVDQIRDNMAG
TF-1 (human erythroid leukemia) cells are maintained in RPMI 1640 (RPMI-1640 was developed by Moore et. al. at Roswell Park Memorial Institute. The formulation is based on the RPMI-1630 series of media utilizing a bicarbonate buffering system and alterations in the amounts of amino acids and vitamins.) with 10% fetal bovine serum (FBS), 0.075% sodium bicarbonate, 1 mM sodium pyruvate, 1× antibiotic/antimycotic (Invitrogen, Carlsbad, Calif.) and 0.45% glucose. The medium is supplemented with GM-CSF (granulocyte-macrophage colony-stimulating factor) at a final concentration of 2 ng/mL. Cells are kept at 37° C. with 5% CO2. […] TF-1 cells are counted and cells are collected to seed 2×10^7 cells per 96-well plate at a density of 2×10^5 cells per well. […]
To perform the assay, serum-starved cells are collected and washed once with unsupplemented RPMI 1640 medium. […] An aliquot of 200 μL of 1 to 10 dilution of Mouse anti-pSTAT5 (pY694) Alexa Fluor 647® in fluorescence activated cell sorting (FACS) buffer is added to the cells. […]

Turning to `Cc1cc(Nc2ccc3ncn([C@@H]4CCc5ccc(F)cc54)c3n2)[nH]n1.Cl.Cl` [Example 1, 3-[(1R)-6-fluoro-2,3-dihydro-1H-inden-1-yl]-N-(3-methyl-1H-pyrazol-5-yl)-3H-imidazo[4,5-b]pyridin-5-amine dihydrochloride], the values for the IC50 in assay [1] and in assay [2] were 21 nM and 35 nM, respectively.
